Test results: patent publication US9156845B2, “4-(substituted amino)-7H-pyrrolo[2,3-d] pyrimidines as LRRK2 inhibitors” (Pfizer Inc., priority 2012, dated 2015)

Legend:
[1] = biological target: GST-tagged truncated LRRK2 (Homo sapiens (Human), UniProt Q5S007); test: LRRK2 Lantha Screen kinase assay; assay type: biochemical; settings: geometric mean of 2-5 determinations unless otherwise indicated (a: >=6 determinations; b: single determination); read-out: LRRK2 WT IC50
mutant G2019S LRRK2 = mutant G2019S LRRK2 (Homo sapiens (Human), UniProt Q5S007, G2019S); test: LRRK2 Lantha Screen kinase assay, mutant enzyme; assay type: biochemical; settings: geometric mean of 2-5 determinations unless otherwise indicated (a: >=6 determinations; b: single determination)
mutant G2019S LRRK2, sequence (Q5S007 970-2527 G2019S): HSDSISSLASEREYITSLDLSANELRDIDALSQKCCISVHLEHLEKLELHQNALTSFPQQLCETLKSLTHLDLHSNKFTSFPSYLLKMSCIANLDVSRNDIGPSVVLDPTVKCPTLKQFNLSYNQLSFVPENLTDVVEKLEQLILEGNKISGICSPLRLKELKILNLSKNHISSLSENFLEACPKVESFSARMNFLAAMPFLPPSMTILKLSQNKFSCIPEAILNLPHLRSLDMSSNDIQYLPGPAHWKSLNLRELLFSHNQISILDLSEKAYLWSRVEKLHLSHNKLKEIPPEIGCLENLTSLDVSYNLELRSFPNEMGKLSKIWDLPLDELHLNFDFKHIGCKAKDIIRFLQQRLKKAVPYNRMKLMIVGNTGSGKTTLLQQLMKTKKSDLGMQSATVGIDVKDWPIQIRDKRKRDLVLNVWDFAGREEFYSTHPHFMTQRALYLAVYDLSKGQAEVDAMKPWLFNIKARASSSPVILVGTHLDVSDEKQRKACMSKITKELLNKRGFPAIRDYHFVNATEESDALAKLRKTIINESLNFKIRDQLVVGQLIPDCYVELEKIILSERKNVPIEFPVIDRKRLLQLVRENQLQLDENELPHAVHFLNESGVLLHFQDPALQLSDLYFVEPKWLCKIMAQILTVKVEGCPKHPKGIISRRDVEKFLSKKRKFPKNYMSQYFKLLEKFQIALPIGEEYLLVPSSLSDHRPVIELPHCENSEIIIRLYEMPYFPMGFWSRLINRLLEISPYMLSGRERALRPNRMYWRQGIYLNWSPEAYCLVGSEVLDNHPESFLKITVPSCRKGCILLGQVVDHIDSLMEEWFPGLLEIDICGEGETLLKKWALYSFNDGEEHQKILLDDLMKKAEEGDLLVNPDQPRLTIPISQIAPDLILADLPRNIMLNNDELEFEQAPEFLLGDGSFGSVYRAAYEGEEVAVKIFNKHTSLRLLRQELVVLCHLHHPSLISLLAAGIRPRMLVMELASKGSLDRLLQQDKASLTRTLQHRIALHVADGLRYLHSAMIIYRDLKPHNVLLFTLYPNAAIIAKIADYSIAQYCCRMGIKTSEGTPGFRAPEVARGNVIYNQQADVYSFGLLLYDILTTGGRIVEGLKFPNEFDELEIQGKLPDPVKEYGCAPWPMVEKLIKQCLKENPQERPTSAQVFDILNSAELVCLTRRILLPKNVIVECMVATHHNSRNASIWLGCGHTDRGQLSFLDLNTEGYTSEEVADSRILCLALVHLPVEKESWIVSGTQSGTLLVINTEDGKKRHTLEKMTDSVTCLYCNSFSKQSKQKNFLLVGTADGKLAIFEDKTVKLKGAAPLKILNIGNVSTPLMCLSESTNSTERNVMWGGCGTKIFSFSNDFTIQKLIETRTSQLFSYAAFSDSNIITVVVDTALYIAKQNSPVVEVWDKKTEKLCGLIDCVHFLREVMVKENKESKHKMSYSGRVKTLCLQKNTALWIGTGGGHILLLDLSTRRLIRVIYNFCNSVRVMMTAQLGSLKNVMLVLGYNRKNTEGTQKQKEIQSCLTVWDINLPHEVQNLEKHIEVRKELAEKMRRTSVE
Description: LRRK2 kinase activity was measured using Lantha Screen technology from Invitrogen. GST-tagged truncated LRRK2 from Invitrogen (Cat # PV4874) was incubated with a fluorescein-labeled peptide substrate based upon ezrin/radixin/moesin (ERM), also known as LRRKtide (Invitrogen cat #PR8976A), in the presence of a dose response of compound. Upon completion, the assay was stopped and detected with a terbium labeled anti-phospho-ERM antibody (Invitrogen, cat #PR8975A). […] Aliquots (3.5 μL) of the 100% DMSO dose response were mixed with 46.5 μL water then 1 μL of this mixture was added to the 3 μL substrate mix in the 384-well plate. The kinase reaction was started with 3 μL of a working solution of LRRK2 enzyme at a concentration of 4 μg/mL. […] The reaction was allowed to progress at room temperature for two hours and then stopped with the addition of 7 μL of detection buffer (20 mM Tris pH 7.6, 0.01% NP-40, 0.02% NaN3, 6 mM EDTA with 2 nM terbium labeled anti-phospho-ERM).
All final concentrations of substrate ATP and enzyme were the same.

GST-tagged truncated LRRK2, sequence (Q5S007 970-2527): as the sequence (Q5S007 970-2527 G2019S) above, with S1050G counted along it

| Compound | IC50 [1] [nM] | IC50 (mutant G2019S LRRK2) [nM] |
| --- | --- | --- |
| N#Cc1cccc(-c2c[nH]c3ncnc(N4CCC(c5cc[nH]n5)CC4)c23)c1 [Example 34, 3-{4-[4-(1H-pyrazol-3-yl)piperidin-1-yl]-7H-pyrrolo[2,3-d]pyrimidin-5-yl}benzonitrile] | 69 | 136 |
| N#Cc1cccc(-c2c[nH]c3ncnc(N4CC[C@H](F)C4)c23)c1 [Example 35, 3-{4-[(3S)-3-fluoropyrrolidin-1-yl]-7H-pyrrolo[2,3-d]pyrimidin-5-yl}benzonitrile] | 30 | 155 |
| N#Cc1cccc(-c2c[nH]c3ncnc(N4CCOC(c5cc[nH]n5)C4)c23)c1 (stereo not drawn) [Example 36, 3-{4-[2-(1H-pyrazol-3-yl)morpholin-4-yl]-7H-pyrrolo[2,3-d]pyrimidin-5-yl}benzonitrile] | 43 | 238 |
| N#Cc1cccc(-c2c[nH]c3ncnc(N4CCCC(c5cc[nH]n5)C4)c23)c1 (stereo not drawn) [Example 37, 3-{4-[3-(1H-pyrazol-3-yl)piperidin-1-yl]-7H-pyrrolo[2,3-d]pyrimidin-5-yl}benzonitrile] | 84 | 200 |
| N#Cc1cccc(-c2c[nH]c3ncnc(N4CCCC(c5ncc[nH]5)C4)c23)c1 (stereo not drawn) [Example 38, 3-{4-[3-(1H-imidazol-2-yl)piperidin-1-yl]-7H-pyrrolo[2,3-d]pyrimidin-5-yl}benzonitrile] | 53 | 331 |
| CN1CCCC(Nc2ncnc3[nH]cc(-c4cccc(C#N)c4)c23)C1 (stereo not drawn) [Example 39, 3-{4-[(1-methylpiperidin-3-yl)amino]-7H-pyrrolo[2,3-d]pyrimidin-5-yl}benzonitrile] | 78 | 243 |
| N#Cc1cccc(-c2c[nH]c3ncnc(N4CCCC5(CNC(=O)C5)C4)c23)c1 (stereo not drawn) [Example 40, 3-[4-(3-oxo-2,7-diazaspiro[4.5]dec-7-yl)-7H-pyrrolo[2,3-d]pyrimidin-5-yl]benzonitrile] | 35 | 119 |
| N#Cc1cccc(-c2c[nH]c3ncnc(NCCN4CCOCC4)c23)c1 [Example 42, 3-(4-{[2-(morpholin-4-yl)ethyl]amino}-7H-pyrrolo[2,3-d]pyrimidin-5-yl)benzonitrile] | 89 | 487 |
| N#Cc1cccc(-c2c[nH]c3ncnc(N4CCCC5(CCOC5)C4)c23)c1 (stereo not drawn) [Example 43, 3-[4-(2-oxa-7-azaspiro[4.5]dec-7-yl)-7H-pyrrolo[2,3-d]pyrimidin-5-yl]benzonitrile] | 34 | 244 |
| CC(=O)NC1CCN(c2ncnc3[nH]cc(-c4cccc(C#N)c4)c23)CC1 [Example 44, N-{1-[5-(3-cyanophenyl)-7H-pyrrolo[2,3-d]pyrimidin-4-yl]piperidin-4-yl}acetamide] | 50 | 190 |
| C[C@H]1CCCN(c2ncnc3[nH]cc(-c4ccc5[nH]ncc5c4)c23)C1 [Example 45, 5-(1H-indazol-5-yl)-4-[(3S)-3-methylpiperidin-1-yl]-7H-pyrrolo[2,3-d]pyrimidine] | 67 | 66 |
| C[C@H]1CCCN(c2ncnc3[nH]cc(-c4cccc(S(N)(=O)=O)c4)c23)C1 [Example 46, 3-{4-[(3S)-3-methylpiperidin-1-yl]-7H-pyrrolo[2,3-d]pyrimidin-5-yl}benzenesulfonamide] | 24 | 33 |
| C[C@H]1CCCN(c2ncnc3[nH]cc(-c4ccccc4F)c23)C1 [Example 47, 5-(2-fluorophenyl)-4-[(3S)-3-methylpiperidin-1-yl]-7H-pyrrolo[2,3-d]pyrimidine] | 97 | 122 |
| C[C@H]1CCCN(c2ncnc3[nH]cc(-c4cccc5[nH]ncc45)c23)C1 [Example 48, 5-(1H-indazol-4-yl)-4-[(3S)-3-methylpiperidin-1-yl]-7H-pyrrolo[2,3-d]pyrimidine] | 10 | 14 |
| Cc1cc(-c2c[nH]c3ncnc(N4CCC[C@H](C)C4)c23)cnc1F [Example 49, 5-(6-fluoro-5-methylpyridin-3-yl)-4-[(3S)-3-methylpiperidin-1-yl]-7H-pyrrolo[2,3-d]pyrimidine] | 64 | 65 |
| C[C@H]1CCCN(c2ncnc3[nH]cc(-c4ccc5c(c4)CNC5=O)c23)C1 [Example 50, 5-{4-[(3S)-3-methylpiperidin-1-yl]-7H-pyrrolo[2,3-d]pyrimidin-5-yl}-2,3-dihydro-1H-isoindol-1-one] | 33 | 33 |
| C[C@H]1CCCN(c2ncnc3[nH]cc(-c4cccnc4)c23)C1 [Example 51, 4-[(3S)-3-methylpiperidin-1-yl]-5-(pyridin-3-yl)-7H-pyrrolo[2,3-d]pyrimidine] | 56 | 95 |
| Cc1cncc(-c2c[nH]c3ncnc(N4CCC[C@H](C)C4)c23)c1 [Example 52, 4-[(3S)-3-methylpiperidin-1-yl]-5-(5-methylpyridin-3-yl)-7H-pyrrolo[2,3-d]pyrimidine] | 15 | 19 |
| C[C@H]1CCCN(c2ncnc3[nH]cc(-c4cnc5[nH]ccc5c4)c23)C1 [Example 53, 4-[(3S)-3-methylpiperidin-1-yl]-5-(7H-pyrrolo[2,3-b]pyridin-5-yl)-7H-pyrrolo[2,3-d]pyrimidine] | 74 | 69 |
| C[C@H]1CCCN(c2ncnc3[nH]cc(-c4ccc5c(c4)C(=O)NC5)c23)C1 [Example 54, 6-{4-[(3S)-3-methylpiperidin-1-yl]-7H-pyrrolo[2,3-d]pyrimidin-5-yl}-2,3-dihydro-1H-isoindol-1-one] | 68 | 59 |
| C[C@H]1CCCN(c2ncnc3[nH]cc(-c4cnc5cc[nH]c5c4)c23)C1 [Example 55, 4-[(3S)-3-methylpiperidin-1-yl]-5-(1H-pyrrolo[3,2-b]pyridin-6-yl)-7H-pyrrolo[2,3-d]pyrimidine] | 53 | 50 |
| C[C@H]1CCCN(c2ncnc3[nH]cc(-c4ccc(O)cc4)c23)C1 [Example 56, 4-{4-[(3S)-3-methylpiperidin-1-yl]-7H-pyrrolo[2,3-d]pyrimidin-5-yl}phenol] | 26 | 28 |
| C[C@H]1CCCN(c2ncnc3[nH]cc(-c4ccc(C(N)=O)cc4)c23)C1 [Example 57, 4-{4-[(3S)-3-methylpiperidin-1-yl]-7H-pyrrolo[2,3-d]pyrimidin-5-yl}benzamide] | 13 | 9 |
| C[C@H]1CCCN(c2ncnc3[nH]cc(-c4cccc(O)c4)c23)C1 [Example 58, 3-{4-[(3S)-3-methylpiperidin-1-yl]-7H-pyrrolo[2,3-d]pyrimidin-5-yl}phenol] | 9 | 12 |
| Cc1cnc(Cl)c(-c2c[nH]c3ncnc(N4CCC[C@H](C)C4)c23)c1 [Example 59, 5-(2-chloro-5-methylpyridin-3-yl)-4-[(3S)-3-methylpiperidin-1-yl]-7H-pyrrolo[2,3-d]pyrimidine] | 30 | 30 |
| C[C@H]1CCCN(c2ncnc3[nH]cc(-c4cccc(C(N)=O)c4)c23)C1 [Example 60, 3-{4-[(3S)-3-methylpiperidin-1-yl]-7H-pyrrolo[2,3-d]pyrimidin-5-yl}benzamide] | 86 | 58 |
| N#Cc1cccc(-c2c[nH]c3ncnc(N4CCCC(F)C4)c23)c1 (stereo not drawn) [Example 61, 3-[4-(3-fluoropiperidin-1-yl)-7H-pyrrolo[2,3-d]pyrimidin-5-yl]benzonitrile] | 12 | 80 |
